Results published in patent publication US7645882B2, “Inhibitor of protein modification products formation” (priority 2003, dated 2010).

Key:
pentosidine = test: Pentosidine production inhibiting effect with BSA and arabinose; type: biochemical; conditions: BSA and arabinose instead of plasma
Summary of the method: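 Heparinized hemodialysis-patient plasma (replaced here by BSA plus arabinose) incubated with compound at 0.8, 2.0, 5.0 mM final, 37 °C, one week. Protein TCA-precipitated, hydrolysed in 6N HCl at 110 °C for 16 h; free pentosidine quantified by reversed-phase HPLC with fluorescence (ex/em 335/385 nm) against synthetic standard.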

[1] = system: rat carotid balloon injury model; test: Vascular endothelial thickening inhibiting effect in rat carotid balloon injury model; type: in vivo; conditions: oral 50 mg/kg twice daily (hydrochloride), 15 days, aminoguanidine hydrochloride 45 mg/kg twice daily as positive control
Procedure: vascular endothelial thickening inhibiting effect in rat carotid balloon injury model, which is post-vasodilatory operation restenosis model.
TM-2002 was suspended in sodium carboxymethylcellulose aqueous solution (CMC) (0.5%) using mortar and prepared to the concentration of 12.5 mg/mL using measuring cylinder.
Aminoguanidine hydrochloride (Sigma) was used as positive control, suspended in CMC aqueous solution (0.5%) using mortar in the same manner, and prepare to the concentration of 11.25 mg/mL using measuring cylinder. Each preparation was formed when use it to administer orally coercively using disposable injection and oral sonde with suspending. […]
While testing, the alive and the condition of wound were observed everyday. The body weight was measured once a day from the day before injury to 14 day after balloon injury. The dose of each individuals were calculated by their body weight.
The blood samples were obtained from abdomen vena cava under anesthesia by ether on 15 day after balloon injury. […] The area of intravascular lumen, the area surrounded by internal elastic lamina and the area surrounded by external elastic lamina was calculated using image analyzer (VM-30, Olympus photology).
For each sections (3 region), the area of neointimal, media and neointimal/media rate of blood vessel was calculated from the measured area. […]

Compound: Cc1ncc2c(c1O)C(c1c(C)nn(-c3ccccc3)c1O)OC2 (centres unmarked) [compound 68, 1-(5-hydroxy-3-methyl-1-phenyl-1H-pyrazol-4-yl)-6-methyl-1,3-dihydro-furo[3,4-c]pyridin-7-ol]
- Pentosidine production rate in 5 mM of medicament (%) (pentosidine): 2.82%
- intimal thickening inhibiting effect [1]: intimal thickening inhibiting effect equal to aminoguanidine group
